The source of these data is the METLIN SMRT retention time set (Domingo-Almenara et al. 2019).

Each structure is given as a SMILES string.

This data set in a line: gradient 5% acetonitrile 3 min, to 50% in 2 min, to 85% in 15 min, held 3 min, 100 µL/min. The settings on record: column: Zorbax Extend-C18 2.1 x 50 mm; eluents: water / acetonitrile, 0.1% formic acid. The gist of the method: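 The mobile phases were water and acetonitrile, each with 0.1% formic acid, pumped at 100 μL/min through a Zorbax Extend-C18 column (2.1 × 50 mm, 1.8 μm). Pure standards were injected as mixtures of ~100 molecules and detected by a quadrupole time-of-flight mass spectrometer in positive and negative ionization mode. Retention time came from computationally picked adduct peaks, each inspected by hand.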
`CCn1nccc1C(=O)N1CCC(Nc2ncnc3c2CCC3)CC1` came in with an RP-LC retention time of 557 s.
As to `CCn1c(=O)c2c(cc(C)n2C)n(CC(=O)Nc2ccc(OC)c(Cl)c2)c1=O`, the RP-LC retention time came out at 794 s.
For `CCc1ccc(C(=O)NC2CCN(c3cc(-c4ccc(Cl)cc4)[nH]n3)C2)cc1` (stereo not given), the RP-LC retention time is 879 s.
The result for `CC(C)c1nnc(-c2sccc2NC(=O)C2CCC2)o1` reads 1230 s.
The molecule `O=C(O)CCC1CCCN(S(=O)(=O)c2ccccc2)C1` (stereo not given) yielded an RP-LC retention time of 770 s.
With `CC(C)CCNC(=O)N1C[C@@H]2CCCN3CCC[C@@H]([C@H]23)[C@H]1CCCC(=O)NCC1CC1`, the RP-LC retention time turned out to be 625 s.
`CCc1nccn1Cc1nc(-c2ccc(C(F)(F)F)cc2)no1`: the RP-LC retention time was 700 s.
Molecule `Cc1oc(-c2ccc(NC(=O)CC3CCCC3)cc2)nc1Cn1cccn1` registered an RP-LC retention time of 896 s.
The result for `O=C(Cn1nc2c3ccccc3ncn2c1=O)Nc1ccc(F)cc1F` reads 668 s; that for `Cc1nn2c(CNC(=O)c3ccsc3)c(-c3ccccc3)nc2s1`, 782 s.
For the molecule `N#CCCSc1ccccc1NC(=O)c1cc2cc([N+](=O)[O-])ccc2s1`, the RP-LC retention time worked out at 954 s.
Molecule `Cc1nc(CC(=O)NCc2ccccc2C(F)(F)F)sc1C(=O)NCC(C)C` showed an RP-LC retention time of 847 s.
`Oc1cccc(-c2nc3cnc(Br)cn3c2Nc2cccc(C(F)(F)F)c2)c1` gave an RP-LC retention time of 902 s.
`Cc1ccccc1-c1nc2cnccn2c1NCCC(=O)NC1CCCCC1` yielded an RP-LC retention time of 678 s.
As to `Cc1ccn2c(Nc3ccc4c(c3)OCCO4)c(-c3ccccc3O)nc2c1`, the RP-LC retention time was determined as 670 s.
Molecule `CSc1ccc(CNC(=O)C2CCN(c3cncnc3N3CCCCC3)CC2)cc1` showed an RP-LC retention time of 734 s.
For the molecule `CCN(c1ccc(OC)cc1)S(=O)(=O)c1ccc2c(c1)CCCC(=O)N2`, the RP-LC retention time came to 804 s.
Molecule `Cc1ccc(NC(=O)N2CCCC(CC(=O)N3CCC(Cc4ccccc4)CC3)C2)cc1` (stereo not given) came in with an RP-LC retention time of 1120 s.
Consider `CSc1cccc(NC(=O)N2CCN(Cc3nc4ccc(C)cc4o3)CC2)c1`, for which the RP-LC retention time came to 776 s.
The molecule `COC(=O)c1cccc(N2C=C(C#N)S(=O)(=O)c3ccc(C)cc32)c1` gave an RP-LC retention time of 881 s.
In turn, `CCOc1ccc(S(=O)(=O)N2CCC(C(=O)Nc3ccc(Br)cc3F)CC2)cc1` came in with an RP-LC retention time of 1060 s.
Turning to `CC(C)N1CC(CNC(=O)c2ccc(Cl)s2)C2(CCCCC2)C1` (stereo not given), the RP-LC retention time was determined as 694 s.
On to `Cc1ccc(S(=O)(=O)N(C)c2ccccc2)s1`, for which the RP-LC retention time is 901 s.
The molecule `O=C1CCCc2cc(S(=O)(=O)N3CCC(C(=O)NCCC4=CCCCC4)CC3)ccc2N1` gave an RP-LC retention time of 796 s.
Molecule `Cn1c(C2CCN(C(=O)Nc3ccc(Cl)cc3)CC2)cc(=O)n2nccc12` showed an RP-LC retention time of 676 s.
On to `Cc1nc(CCNC(=O)C2CCN(S(=O)(=O)c3ccc(C4CCCCC4)cc3)CC2)cs1`, for which the RP-LC retention time came out at 981 s.
The result for `CCN(Cc1ccc(Cl)cc1)Cc1cc(=O)n2cc(C)ccc2n1` reads 583 s.
Turning to `O=C1COc2cccnc2N1`, the RP-LC retention time came out at 648 s.
The value for `O=C(Nc1cnccn1)c1ccc(S(=O)(=O)N2CCCCCC2)cc1` was 766 s.
Molecule `Cc1ccc(CC(=O)NC2CCN(c3ccc(F)cc3)C2=O)cc1` (stereo not given) returned an RP-LC retention time of 828 s.
Regarding `Cc1ccc(Nc2c(-c3ccc(C)cc3)nc3ccccn23)cc1`, the RP-LC retention time was 741 s.
In turn, `Cc1cc(C)cc(C(=O)N2CCCC(C(=O)NCCc3ccco3)C2)c1` (stereo not given) returned an RP-LC retention time of 836 s.
Molecule `COc1ccc(Nc2c(-c3ccc(SC)cc3)nc3ncccn23)cc1OC` came in with an RP-LC retention time of 702 s.
`O=C(C1CCC1)N1CCc2sc(S(=O)(=O)NCc3ccccc3)cc2C1` showed an RP-LC retention time of 847 s.
Take `Cn1cc(-c2cc3n(n2)CCC(=O)N3CCCC(=O)NCC2COCCO2)c2ccccc21` (stereo not given): the RP-LC retention time is 680 s.
In turn, `CCn1c(=O)c(NCc2ccc(C(C)C)cc2)nc2ccncc21` displayed an RP-LC retention time of 720 s.
In the case of `NC(=O)C1CCN(Cc2nc(-c3ccc(N4CCSCC4)nc3)no2)CC1`, the RP-LC retention time came out at 597 s.
The value for `CCc1cc(C(=O)N2CCCC2)nc2cc(-c3ccsc3)nn12` was 950 s.
`Cc1ccc(C)c(N2CCN(C(=O)c3ccc(Cn4cncn4)cc3)CC2)c1` gave an RP-LC retention time of 860 s.
The value for `COc1ncccc1CNC(=O)CCc1ccccc1` was 738 s; that for `Cc1cc(-c2nnc(NC(=O)C3CCCN(S(=O)(=O)c4cccs4)C3)o2)nn1C` (stereo not given) was 696 s.
The value for `N#CCCN(C(=O)c1noc2c1CCCC2)c1ccccc1` was 827 s.
As for `O=S(=O)(c1cc(-c2nnc(C3CC3)o2)co1)N1CCN(C2CCCCC2)CC1`, the RP-LC retention time is 640 s.
The molecule `Cc1ccc(NC(=O)C(C)C2CCN(C(=O)Nc3ccccc3)CC2)cc1C` (stereo not given) displayed an RP-LC retention time of 900 s.
Turning to `Cc1ccccc1Nc1nc(N)c2c(F)cccc2n1`, the RP-LC retention time was 610 s.
In the case of `CCN(CC)S(=O)(=O)c1ccc2c(c1)c(=O)c(C(=O)N1CCN(c3ccccn3)CC1)cn2C`, the RP-LC retention time worked out at 588 s.
For `COc1ccc(-c2cc3c(=O)n(Cc4noc(CN5CCCC5)n4)ccn3n2)cc1`, the RP-LC retention time was 646 s.
`CCN1C(=O)COc2cc(-c3noc(C(=O)N4CCN(C5CCCCC5)CC4)n3)ccc21` came in with an RP-LC retention time of 652 s.
As to `CCc1cc(=O)n(CC(=O)N(CC)c2ccccc2)c(N2CCOCC2)n1`, the RP-LC retention time came to 747 s.
Molecule `Cc1nc(-c2ccc(S(=O)(=O)Nc3ccc(S(N)(=O)=O)cc3)cc2)co1` had an RP-LC retention time of 706 s.
`CN1c2ccc(Cl)cc2C(=O)NC12CCN(C(=O)c1ccccc1)CC2` had an RP-LC retention time of 793 s.
With `O=C(NCC1(c2cccs2)CC1)c1cnccn1`, the RP-LC retention time came to 736 s.
As for `O=C(CSCC(=O)Nc1nc2ccccc2s1)Nc1nc(-c2cccs2)cs1`, the RP-LC retention time amounted to 854 s.
The result for `COc1cc(C(=O)Nc2nc3c(C)cc(Cl)cc3s2)cc(OC)c1OC` reads 1120 s; that for `Cc1cc(C(F)F)n2nc(C(=O)Nc3cc(F)ccc3C)nc2n1`, 852 s.
In turn, `O=S(=O)(c1ccc(-c2cc(C(F)(F)F)on2)s1)N1CCN(c2ccccn2)CC1` yielded an RP-LC retention time of 883 s.
For `O=S(=O)(c1ccc(-c2noc(-c3cccc(Cl)c3)n2)cc1)N1CCCC1`, the RP-LC retention time came to 1260 s.
For the molecule `Cc1cccc(CNC(=O)C2CCN(S(=O)(=O)c3ccc(-c4cc(C)[nH]n4)o3)CC2)c1`, the RP-LC retention time worked out at 816 s.
In turn, `CCOc1ccc(-c2nc(-c3cccc(-c4ccnn4CC)c3)no2)cc1OCC` showed an RP-LC retention time of 1300 s.
`Cn1c(C(=O)NC2CCN(Cc3ccccc3)CC2)cc2c(=O)oc3ccccc3c21`: the RP-LC retention time was determined as 667 s.
`Cc1nn(-c2nc(-c3ccc(Cl)cc3)cs2)c(C)c1CC(=O)N1CCN(c2ccccc2)CC1` had an RP-LC retention time of 1290 s.
As to `Cc1ccc(F)c2c(=O)c3c([nH]c12)CCN(CC(=O)Nc1ccc(F)c(F)c1)C3`, the RP-LC retention time was 635 s.
In turn, `O=S(=O)(c1cccc(-c2nnc(-c3ccc(Cl)cc3)o2)c1)N1CCCC1` gave an RP-LC retention time of 1050 s.
As for `CSc1cccc(NC(=O)Cn2c(-c3cnccn3)nc(C)c(C)c2=O)c1`, the RP-LC retention time stood at 769 s.
The value for `COc1ccccc1-c1nc2sc3c(c2c(=O)[nH]1)CCCC3` was 1150 s.
As to `Cc1ccc(C)c2c(=O)c3c([nH]c12)CCN(CC(=O)Nc1ccccc1)C3`, the RP-LC retention time is 627 s.
Consider `O=C(Nc1ccc2c(c1)N(C(=O)c1cccs1)CC2)c1ccccn1`, for which the RP-LC retention time worked out at 824 s.
The molecule `COc1ccc(N2CCN(CC(=O)N3CCC(C(N)=O)CC3)CC2)cc1` gave an RP-LC retention time of 885 s.
In the case of `Cn1nccc1-c1cccc(-c2noc(-c3cccc(Br)c3)n2)c1`, the RP-LC retention time came out at 1300 s.
Turning to `CCOc1ccc(-c2noc(Cn3nc(-c4ccccc4F)ccc3=O)n2)cc1`, the RP-LC retention time was determined as 1050 s.
The molecule `Cc1[nH]c(C(=O)N2CCCC(C(=O)N3CCN(c4ccccc4)CC3)C2)c(C)c1C` (stereo not given) gave an RP-LC retention time of 853 s.
`COc1ccc2nc(C(=O)NCc3ccccc3Cl)cn2n1` yielded an RP-LC retention time of 830 s.
The value for `Cc1ccsc1C(=O)Nc1ccc(-c2nc(Cn3cccn3)c(C)o2)cc1` was 884 s.
As for `CNC(=O)c1oc2ccccc2c1NC(=O)C1CCC1`, the RP-LC retention time came to 803 s.
Consider `CCOC(=O)C1CCN(S(=O)(=O)c2ccc(Cl)c(-c3nnc(-c4ccccc4)o3)c2)CC1`, for which the RP-LC retention time turned out to be 1130 s.
The molecule `COc1ccc(NC(=O)C2CCCN(c3nnc4ccc(Cl)cn34)C2)c(OC)c1` (stereo not given) returned an RP-LC retention time of 701 s.
`CC(NC(=O)c1cn(-c2cc(-c3nc(C4CC4)no3)ccn2)cn1)c1ccccc1` (stereo not given) had an RP-LC retention time of 981 s.
As to `COc1ccc(C(=O)COc2ccccc2OC)cc1`, the RP-LC retention time worked out at 825 s.
On to `Cc1ccc(-n2nc(N3CCCN(C(=O)c4ccc(Br)o4)CC3)ccc2=O)cc1C`, for which the RP-LC retention time was 824 s.
`COc1ccccc1-c1nc(Cn2nnc(-c3nc(-c4ccc(Cl)c(F)c4)no3)c2C)c(C)o1`: the RP-LC retention time stood at 1240 s.
